Measured values as given in patent US12630517B2, “Process for preparing large size isoxazoline particles” (Intervet Inc., priority 2017, dated 2026).

Assays:
Format in all cases: physicochemical
[1] = Volume weighted particle size distribution by laser diffraction (Sympatec Helos); conditions: for x50/d50 particle size dimension at end of recycle loop: in-process slurry at 54° C., after the recycle loop, before final cooling
Source text: As used herein, particle size data reported are volume weighted as measured by conventional particle techniques well known to those skilled in the art, such as static light scattering (also known as laser diffraction), image analysis or sieving. More discussion of particle size measurement is provided below.
The volume weighted particle size can be measured by sieving, microscopy or laser diffraction (Malvern or Sympatec) The volume weighted particle size measurement can be performed with a Malvern Mastersizer 2000 with the Hydro 2000G measuring cell, or with a Horiba LA-910 laser scattering particle size distribution analyzer. The volume weighted particle size can be measured by a Sympatec Helos instrument.
(§1) The volume weighted particle size of the fluralaner crystals was measured by laser diffraction (Sympatec Helos) to determine the particle size distribution. The mechanical resiliency was also determined during a pressure titration experiment. […] In this case, this material is the product of the previous commercial process using an unseeded, distillative crystallization process from an ethyl acetate, toluene solvent system. Of note is the lower particle size and general wider distribution of sizes of the particles.

[2] = Pressure titration for mechanical resiliency (Sympatec HELOS), 1 to 3 bar dispersion pressure; conditions: for reduction in x50/d50 from the pressure titration from 1 bar to 3 bar: dried particles of the example (FIG. 10, FIG. 15)
Source text: Mechanical resiliency is the resistance of crystals or particles to break into smaller crystals or particles when exposed to pressure or stress from other sources. Mechanical resiliency can be measured by a pressure titration using the Sympatec HELOS. This instrument can simultaneously measure the particle size distribution. In this experiment, pressure is applied to the crystals to disperse or separate them one from another. The change in the particle size distribution measurement of d50 is monitored as the pressure on the crystals is increased from 1 bar to 3 bars. Preferably, the isoxazoline compound particles of the subject invention will not decrease their particle size distribution measurement of d50 by more than 30-40% when the dispersion pressure is increased from 1 to 3 bar.
as §1
In this experiment, the particle size distribution was monitored as the particles are exposed to increasing pressure from 1 bar to 3 bar. […] Moreover, the particle size distribution curve broadens and shifts towards smaller particle sizes. This is evidence that these particles are being broken under the increased pressure and is an indication that the particles were very thin.

[3] = Particle size by wet method, Microtrac static light scattering; conditions: FIG. 13
Experimental: FIG. 13—Particle size distribution of the material made from Example 4. […] The particle size measurement for this sample was conducted with a wet method using a Microtrac static light scattering system.

[4] = Scanning electron microscopy of particles
Source text: Scanning electron microscopy (SEM) is an analytical instrument that uses a focused beam of high-energy electrons to generate a variety of signals at the surface of solid specimens. The signals reveal information about the sample including external morphology (texture), chemical composition, and crystalline structure and orientation of materials making up the sample. FIG. 8 is a scanning electron microscopy image of fluralaner particles that were not produced the inventive process. Of note is that these crystals are rather thin. FIG. 9 is a scanning electron microscopy image of fluralaner particles that were produce by the inventive process. In contrast to the particles shown in FIG. 8, these particles are large (around 100 μm) and thick (around 10-20 μm).

[5] = FIG. 9, particles produced by the inventive process

Cc1cc(C2=NOC(c3cc(Cl)cc(Cl)c3)(C(F)(F)F)C2)ccc1C(=O)NCC(=O)NCC(F)(F)F (stereo not drawn) [Example 1]
x50/d50 particle size dimension at end of recycle loop [1]: approximately 40 μm

Cc1cc(C2=NOC(c3cc(Cl)cc(Cl)c3)(C(F)(F)F)C2)ccc1C(=O)NCC(=O)NCC(F)(F)F (stereo not drawn) [Example 3]
reduction in x50/d50 from the pressure titration from 1 bar to 3 bar [2]: approximately 24% | x50 of resulting material ([1]; FIG. 10, dried particles): 108 | x50/d50 particle size dimension at end of recycle loop [1]: approximately 45 μm

Cc1cc(C2=NOC(c3cc(Cl)cc(Cl)c3)(C(F)(F)F)C2)ccc1C(=O)NCC(=O)NCC(F)(F)F (stereo not drawn) [Example 4]
d10 [3]: 47.3 μm | d50 [3]: 103 μm | d90 [3]: 158.8 μm | x50/d50 particle size dimension at end of recycle loop [1]: approximately 40 μm

Cc1cc(C2=NOC(c3cc(Cl)cc(Cl)c3)(C(F)(F)F)C2)ccc1C(=O)NCC(=O)NCC(F)(F)F (stereo not drawn) [Example 5]
reduction in x50/d50 from the pressure titration from 1 bar to 3 bar [2]: approximately 20% | average d50 of resulting material ([1]; FIG. 15, crystallised from 5:3 toluene:ethyl acetate): 99 μm | x50/d50 particle size dimension at end of recycle loop [1]: approximately 50 μm

Cc1cc(C2=NOC(c3cc(Cl)cc(Cl)c3)(C(F)(F)F)C2)ccc1C(=O)NCC(=O)NCC(F)(F)F (stereo not drawn) [fluralaner, 4-[5-(3,5-Dichlorophenyl)-5-trifluoromethyl-4,5-dihydroisoxazol-3-yl]-2-methyl-N-[(2,2,2-trifluoro-ethylcarbamoyl)-methyl]-benzamide]
particle size (x50) at 2 bar dispersing pressure ([2]; FIG. 5, crystals not produced by the inventive process, 2 bar): 80 μm | particle size (d50) at 1 bar ([2]; FIG. 6, crystals produced by the inventive process, 1 bar): 100 μm | particle size (d50) at 3 bar ([2]; FIG. 6, crystals produced by the inventive process, 3 bar): 73 μm | loss of d50 in pressure titration ([2]; FIG. 7, additional batch produced by the inventive process): around 35% | d50 after pressure titration ([2]; FIG. 7, additional batch produced by the inventive process, after pressure increase): around 67 μm | original d50 ([2]; FIG. 7, additional batch produced by the inventive process, before pressure increase): around 103 μm | d50 reduction in pressure titration test ([2]; FIG. 10, crystals produced by the inventive process, % of the original value): around 25% | particle thickness by SEM ([4]; FIG. 8, particles not produced by the inventive process): rather thin | particle size by SEM [4, 5]: around 100 μm | particle thickness by SEM [4, 5]: 10-20 μm
